The nature of assay [1]: Cell cycle arrest in human CNE2 cells assessed as accumulation at S phase at 1 uM after 24 hrs by propidium iodide staining-based flow cytometric analysis (reference value: 14.7%). The class given is functional. As to conditions: CNE-2. Background: In flow cytometry, cells or beads pass a laser one at a time.
A further assay concerns the target T1, Aurora kinase A (Homo sapiens, UniProt O14965).
T1 sequence (O14965 whole entry): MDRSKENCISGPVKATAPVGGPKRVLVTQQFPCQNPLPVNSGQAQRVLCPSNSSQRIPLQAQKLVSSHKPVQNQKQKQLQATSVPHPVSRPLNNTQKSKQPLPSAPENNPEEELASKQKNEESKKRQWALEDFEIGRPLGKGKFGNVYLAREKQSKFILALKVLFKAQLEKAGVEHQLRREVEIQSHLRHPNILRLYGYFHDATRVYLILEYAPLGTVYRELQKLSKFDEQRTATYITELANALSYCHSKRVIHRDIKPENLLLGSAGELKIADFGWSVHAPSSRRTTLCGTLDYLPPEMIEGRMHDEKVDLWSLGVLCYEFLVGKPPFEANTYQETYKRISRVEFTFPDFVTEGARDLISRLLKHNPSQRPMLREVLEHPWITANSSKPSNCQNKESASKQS
The assay can be described thus: Inhibition of Aurora A (unknown origin) using FAM-labeled peptide as substrate preincubated for 10 mins followed by substrate addition measured after 60 mins.

Assay [2] is described as follows: Cell cycle arrest in human CNE2 cells assessed as accumulation at G1 phase at 1 uM after 24 hrs by propidium iodide staining-based flow cytometric analysis (reference value: 52.5%). The assay is classed as functional. As to conditions: CNE-2.
Assay [3] in a line: Cell cycle arrest in human CNE2 cells assessed as accumulation at G2/M phase at 1 uM after 24 hrs by propidium iodide staining-based flow cytometric analysis (reference value: 38.2%). The assay is classed as functional. As to conditions: CNE-2.
Assay [4] can be described thus: Cell cycle arrest in human CNE2 cells assessed as accumulation at polyploid period at 1 uM after 24 hrs by propidium iodide staining-based flow cytometric analysis (reference value: […]). The class given is functional. Particulars: CNE-2.
The next assay concerns MCF7. As to the kind of experiment: Antiproliferative activity against human MCF7 cells assessed as cell viability after 72 hrs by CCK8 assay. The class given is functional, cell-based. As to conditions: Homo sapiens, MCF7, 72 h; read-out: IC50. For orientation: Tetrazolium assays rely on reduction of a dye to a coloured formazan, in cell work by metabolically active cells.

A further assay has as its system A-431. The assay can be described thus: Antiproliferative activity against human A431 cells assessed as cell viability after 72 hrs by CCK8 assay. The class given is functional, cell-based. As to conditions: Homo sapiens, A-431, 72 h; read-out: IC50.
For a further assay, the system named is PC-3. The assay can be described thus: Antiproliferative activity against human PC3 cells assessed as cell viability after 72 hrs by CCK8 assay. The class given is functional, cell-based. As to conditions: Homo sapiens, PC-3, 72 h; read-out: IC50.
In another assay the test system is HeLa. As to the kind of experiment: Antiproliferative activity against human HeLa cells assessed as cell viability after 72 hrs by CCK8 assay. The assay is classed as functional, cell-based. As to conditions: Homo sapiens, HeLa, 72 h; read-out: IC50.
The next assay relates to HL-60. The assay can be described thus: Antiproliferative activity against human HL60 cells assessed as cell viability after 72 hrs by CCK8 assay. The assay is classed as functional, cell-based. As to conditions: Homo sapiens, HL-60, 72 h; read-out: IC50.
The next assay deals with A549. The assay can be described thus: Antiproliferative activity against human A549 cells assessed as cell viability after 72 hrs by CCK8 assay. The class given is functional, cell-based. As to conditions: A549, 72 h.
Assay [5] is described as follows: Antiproliferative activity against human MOLT4 cells assessed as cell viability after 72 hrs by CCK8 assay. The assay is classed as functional, cell-based, MOLT-4. Particulars: Homo sapiens, MOLT-4, 72 h; read-out: IC50.
The nature of assay [6]: Antiproliferative activity against human SKBR3 cells assessed as cell viability after 72 hrs by CCK8 assay. The assay is classed as functional, cell-based, SK-BR-3. As to conditions: Homo sapiens, SK-BR-3, 72 h; read-out: IC50.
A further assay has as its system K562. The assay can be described thus: Antiproliferative activity against human K562 cells assessed as cell viability after 72 hrs by CCK8 assay. The assay is classed as functional, cell-based. As to conditions: Homo sapiens, K562, 72 h; read-out: IC50.
In the next assay the test system is DU-145. As to the kind of experiment: Antiproliferative activity against human DU145 cells assessed as cell viability after 72 hrs by CCK8 assay. The assay is classed as functional, cell-based. Particulars: Homo sapiens, DU-145, 72 h; read-out: IC50.
Another assay relates to MDA-MB-231. As to the kind of experiment: Antiproliferative activity against human MDA-MB-231 cells assessed as cell viability after 72 hrs by CCK8 assay. The assay is classed as functional, cell-based. Particulars: Homo sapiens, MDA-MB-231, 72 h; read-out: IC50.
The test system of another assay is NCI-N87. As to the kind of experiment: Antiproliferative activity against human NCI-N87 cells assessed as cell viability after 72 hrs by CCK8 assay. The class given is functional, cell-based. Particulars: Homo sapiens, NCI-N87, 72 h; read-out: IC50.
The next assay deals with U-937. As to the kind of experiment: Antiproliferative activity against human U937 cells assessed as cell viability after 72 hrs by CCK8 assay. The class given is functional, cell-based. Particulars: Homo sapiens, U-937, 72 h; read-out: IC50.
Assay [7] is described as follows: Antiproliferative activity against human PANC1 cells assessed as cell viability after 72 hrs by CCK8 assay. As to conditions: PANC-1, 72 h. The assay is classed as functional, cell-based.
A further assay has as its system HCT-116. As to the kind of experiment: Antiproliferative activity against human HCT116 cells assessed as cell viability after 72 hrs by CCK8 assay. Particulars: Homo sapiens, HCT-116, 72 h; read-out: IC50. The assay is classed as functional, cell-based.

Broadly, the IC50 is the concentration that inhibits the measured activity by half.

As to `COC(=O)c1ccc(CNc2nc(Nc3cc(C)[nH]n3)cc(N3CCN(C)CC3)n2)cc1`, the Activity in assay [1] came to 6.2%; in [2], 55.4%; in assay [3], 35.3%; in [4], 3%. At Aurora kinase A, this molecule gave a half-maximal inhibitory concentration (IC50) of 127 nM.
Regarding `Cc1cc(Nc2cc(N3CCN(C)CC3)nc(Nc3cccc(Cl)c3)n2)n[nH]1`, the IC50 in the assay with MCF7 is 436 nM; in the assay on A-431 it was 87.5 nM; in the assay with PC-3, 573 nM; on Aurora kinase A it was 10 nM; in the assay with HeLa it was 425 nM; with HL-60 it was 131 nM. Also, the IC50 worked out at 723 nM with A549; 20.1 nM in [5]; 2290 nM in [6]; 97.2 nM with K562; 3090 nM in the assay with DU-145; 56.4 nM in the assay with MDA-MB-231. Moreover, the IC50 in the assay on NCI-N87 was determined as 1770 nM; in the assay with U-937, 21.7 nM; in [7], 351 nM; in the assay on HCT-116, 736 nM. Besides, the Activity came out at 1.7% in [1], 3.3% in [2], 90.5% in assay [3] and 3.9% in assay [4].
Regarding `COc1ccccc1Nc1nc(Nc2cc(C)[nH]n2)cc(N2CCN(C)CC2)n1`, the Activity was 8.2% in assay [1], 38.7% in assay [2], 49% in assay [3] and 3.7% in assay [4]. Also, the IC50 against Aurora kinase A came out at 200 nM.
In the case of `COC(=O)c1ccc(Nc2nc(Nc3cc(C)[nH]n3)cc(N3CCN(C)CC3)n2)cc1`, the half-inhibitory concentration (IC50) in the assay with MCF7 stood at 1780 nM; in the assay with A-431 it was 532 nM; in the assay on PC-3, 1500 nM; on Aurora kinase A, 46 nM; in the assay with HeLa, 1270 nM; in the assay with HL-60, 203 nM. Also, the IC50 amounted to 1830 nM in the assay with A549; 161 nM in assay [5]; 8650 nM in [6]; 359 nM in the assay on K562; 798 nM with DU-145; 359 nM in the assay with MDA-MB-231. For the same molecule, the concentration for half-maximal inhibition (IC50) stood at 17800 nM in the assay on NCI-N87, 119 nM with U-937, 1080 nM in assay [7] and 672 nM in the assay with HCT-116. Also, the Activity in [1] is 2.2%; in [2], 1.7%; in assay [3] it was 84.3%; in assay [4], 11.2%.
As for `Cc1cc(Nc2cc(N3CCN(C)CC3)nc(Nc3ccc(C(=O)OC(C)C)cc3)n2)n[nH]1`, the IC50 was found to be 1320 nM in the assay on MCF7; 440 nM in the assay on A-431; 1360 nM in the assay on PC-3; 22 nM at Aurora kinase A; 985 nM in the assay with HeLa; 181 nM in the assay with HL-60. The concentration for half-maximal inhibition (IC50) turned out to be 1220 nM in the assay on A549; 94.1 nM in [5]; 4020 nM in [6]; 307 nM in the assay with K562; 499 nM in the assay on DU-145; 162 nM with MDA-MB-231. In addition, the IC50 in the assay with NCI-N87 turned out to be 6320 nM; with U-937, 103 nM; in assay [7], 1320 nM; in the assay on HCT-116 it was 1660 nM. In addition, the Activity in assay [1] worked out at 1.7%; in [2], 1.9%; in assay [3], 89%; in [4], 7%.
In the case of `COC(=O)c1ccc(Nc2nc(Nc3cc(C)[nH]n3)cc(N3CCOCC3)n2)cc1`, the IC50 was found to be 938 nM in the assay with MCF7; 832 nM in the assay on A-431; 1090 nM with PC-3; 25 nM on Aurora kinase A; 1890 nM with HeLa; 750 nM with HL-60. The half-maximal inhibitory concentration (IC50) with A549 came to 1590 nM; in [5] it was 302 nM; in assay [6] it was 3180 nM; in the assay on K562, 537 nM; with DU-145, 611 nM; with MDA-MB-231, 571 nM. Also, the 50% inhibitory concentration (IC50) in the assay with NCI-N87 worked out at 3230 nM; with U-937 it was 447 nM; in [7], 1590 nM; in the assay on HCT-116, 1040 nM. Besides, the Activity in assay [1] is 7.1%; in assay [2] it was 52.9%; in assay [3] it was 35.7%; in assay [4] it was 4%.
Turning to `COc1ccc(Nc2nc(Nc3cc(C)[nH]n3)cc(N3CCN(C)CC3)n2)cc1`, the IC50 was 2750 nM in the assay with MCF7; 385 nM in the assay with A-431; 2000 nM in the assay on PC-3; 34 nM against Aurora kinase A; 867 nM with HeLa; 335 nM with HL-60. Further, the concentration for half-maximal inhibition (IC50) is 2650 nM with A549; 116 nM in assay [5]; 14700 nM in assay [6]; 271 nM with K562; 5050 nM in the assay with DU-145; 243 nM with MDA-MB-231. For the same molecule, the IC50 in the assay with NCI-N87 was found to be 18900 nM; in the assay with U-937, 92.3 nM; in assay [7], 1120 nM; in the assay with HCT-116, 2240 nM. Moreover, the Activity in [1] stood at 2.2%; in assay [2] it was 3.4%; in assay [3], 90.6%; in assay [4] it was 2.4%.
On to `Cc1cc(Nc2cc(N3CCN(C)CC3)nc(Nc3ccc(S(N)(=O)=O)cc3)n2)n[nH]1`, for which the IC50 with MCF7 stood at 2680 nM; in the assay with A-431, 2760 nM; in the assay on PC-3, 4380 nM; on Aurora kinase A it was 5 nM; in the assay with HeLa, 3060 nM; with HL-60, 213 nM. Moreover, the IC50 came out at 16700 nM in the assay with A549; 648 nM in assay [5]; 15900 nM in [6]; 1430 nM with K562; 926 nM in the assay with DU-145; 1210 nM in the assay with MDA-MB-231. Moreover, the concentration for half-maximal inhibition (IC50) is 24000 nM in the assay on NCI-N87, 100 nM in the assay with U-937, 8760 nM in assay [7] and 12200 nM in the assay on HCT-116.
Take `Cc1cc(Nc2cc(N3CCN(C)CC3)nc(Nc3cccc([N+](=O)[O-])c3)n2)n[nH]1`: the IC50 came out at 642 nM in the assay on MCF7; 166 nM in the assay with A-431; 962 nM in the assay with PC-3; 16 nM on Aurora kinase A; 1110 nM in the assay on HeLa; 90.9 nM in the assay with HL-60. The IC50 was found to be 926 nM in the assay on A549; 26 nM in assay [5]; 2180 nM in assay [6]; 138 nM in the assay with K562; 1340 nM in the assay with DU-145; 114 nM with MDA-MB-231. In addition, the concentration for half-maximal inhibition (IC50) with NCI-N87 was 4320 nM; with U-937, 25.2 nM; in assay [7], 457 nM; with HCT-116, 1820 nM.

The values are drawn from ChEMBL document CHEMBL3232730, “Design, synthesis and bioevaluation of N-trisubstituted pyrimidine derivatives as potent aurora A kinase inhibitors” (Eur J Med Chem, 2014).
